Source: patent US20070092474A1, “Carnitine salt, preliposome which contains it and dermocosmetic formula for topical use based upon said carnitine salt” (priority 2003, published 2007)
Several values for one entry are separate records, joined by “and”; a condition that tells them apart may be missing. Equal values may be shown once.

Test system: skin blemishes caused by cellulite and localised adiposity
Test: Plicometry: skin plica thickness measured with a plicometer, dermatological test of the cosmetic gel
Type: in vivo, female volunteers
Settings: same tests repeated with the single reactant; site and time point of each value not given
Experimental: A dermatological test was carried out on 25 female volunteers between 18 and 65 years of age, with the backing of the Department of Physiological and Pharmacological Sciences of the university of Pavia. The investigation aimed to check the modification of three anatomical-physiological parameters, qualifying the unaesthetic-functional aspect connected to the manifestation of so-called cellulite and subcutaneous hypertriglyceridaemia: measurement of the skin folds, measurement of the circumference of the thighs, thermographic skin measurement.
The test stretched out over 60 days with the continual daily application of the aforementioned preparation of cosmetic gel. The measurements were carried out after 15, 30 and 60 days. The detail of the test protocol and of the results obtained is shown hereafter.
25 female volunteers aged between 18 and 65, with the presence of skin blemishes caused by cellulite and localised adiposity, were selected according to the following criteria: good general state of health, absence of skin pathologies, not being under medication, commitment not to vary the normal daily routine, no medical history of atopy.
The samples were tested by uniformly applying them on “Glute SX Glute DJ (Femoris Posto SX Femoris Posto DX Femoris Ant. SX Femoris Ant. DX” every day at least once per day for the entire duration of the test.
At the time of inclusion in the study and during the subsequent checks after 15 days (T15), after 30 days (T30) and after 60 days (T60) of treatment the following instrumental measurements were taken: • plicometry (through a plicometer) • thigh circumference (through a measuring tape broken into millimetres) • contact thermography (through liquid crystal thermographic plates).
In particular, the plicometer used in the test constitutes the suitable instrument for measuring the skin plica thickness. Skin plicometry provides numerical data of particular use when the panniculopathic process of the cellulite is associated with localised adiposity.

Question: C[N+](C)(C)CC(O)CC(=O)O (stereo not shown) [Carnitine (II), 3-carboxy-2-hydroxy-propyl trimethyl amine, reference compound] was tested. Which “PLICOMETRY SX, average values” did it give?
Answer: 25.7 and 23.7
